According to ChEMBL document CHEMBL4422625, “Structure Elucidation, Conformation, and Configuration of Cytotoxic 6-Heptyl-5,6-dihydro-2 H-pyran-2-ones from Hyptis Species and Their Molecular Docking to α-Tubulin” (J Nat Prod, 2019):

Key:
Format in all cases: functional, cell-based
HCT-15 = experiment: Cytotoxicity against human HCT15 cells after 48 hrs by sulforhodamine B assay; conditions: HCT-15, 48 h
MCF7 = experiment: Cytotoxicity against human MCF7 cells after 48 hrs by sulforhodamine B assay; conditions: MCF7, 48 h
HeLa = experiment: Cytotoxicity against human HeLa cells after 48 hrs by sulforhodamine B assay

`CCCC[C@@H](/C=C\[C@@H]1OC(=O)C=C[C@@H]1OC(C)=O)OC(C)=O` [PECTINOLIDE A] was tested, and the IC50 (HCT-15) was 5.7 µM, the IC50 (MCF7) was 3.2 µM and the IC50 (HeLa) was 3.2 µM.

`CCCC[C@H](/C=C\[C@@H]1OC(=O)C=C[C@@H]1OC(C)=O)OC(C)=O` was tested, and the IC50 (HCT-15) was 0.8 µM, the IC50 (MCF7) was 0.5 µM and the IC50 (HeLa) was 0.7 µM.

With `CCCC[C@@H](/C=C\[C@@H]1OC(=O)C=C[C@@H]1O)OC(C)=O` [PECTINOLIDE C] the IC50 (HCT-15) was 2.3 µM, the IC50 (MCF7) was 1 µM and the IC50 (HeLa) was 0.3 µM.

Work on `CCCC[C@H](/C=C\[C@@H]1OC(=O)C=C[C@@H]1O)OC(C)=O` yielded an IC50 (HCT-15) of 9.5 µM, an IC50 (MCF7) of 1.3 µM and an IC50 (HeLa) of 1.4 µM.

For `CCCC[C@H](O)/C=C\[C@@H]1OC(=O)C[C@@H](OC)[C@@H]1O`, the IC50 (HCT-15) was > 10 µM, the IC50 (MCF7) was > 10 µM and the IC50 (HeLa) was > 10 µM.

Compound `CCCC[C@H](O)/C=C\[C@@H]1OC(=O)C=C[C@@H]1OC(C)=O` [PECTINOLIDE B] has an IC50 (HCT-15) of 5.2 µM, an IC50 (MCF7) of 9.3 µM and an IC50 (HeLa) of 4.1 µM.

With `CCCC[C@@H](/C=C\[C@@H]1OC(=O)C[C@@H](OC)[C@@H]1OC(C)=O)OC(C)=O` the IC50 (HCT-15) was > 10 µM, the IC50 (MCF7) was > 10 µM and the IC50 (HeLa) was > 10 µM.

With `CC[C@]1(O)C[C@@H]2CN(CCc3c([nH]c4ccccc34)[C@@](C(=O)OC)(c3cc4c(cc3OC)N(C)[C@H]3[C@@](O)(C(=O)OC)[C@H](OC(C)=O)[C@]5(CC)C=CCN6CC[C@]43[C@@H]65)C2)C1` [VINBLASTINE] the IC50 (HCT-15) was 0.011 µM, the IC50 (MCF7) was 0.012 µM and the IC50 (HeLa) was 0.011 µM.

In the case of `C/C=C/C[C@H](C)[C@@H](OC)[C@@H](C)[C@H](O)C[C@H]1OC(=O)C=C[C@H]1CC` [PIRONETIN], the IC50 (HCT-15) is reported as < 0.015 µM, the IC50 (MCF7) is reported as 0.015 µM and the IC50 (HeLa) is reported as 0.092 µM.

Compound `CCCC[C@H](O)/C=C\[C@@H]1OC(=O)C=C[C@@H]1O` has an IC50 (HCT-15) of 7.4 µM, an IC50 (MCF7) of 5.9 µM and an IC50 (HeLa) of 6.2 µM.

`CCCC[C@H](OC(C)=O)[C@@H](O)[C@H](O)[C@@H]1OC(=O)C=C[C@@H]1OC(C)=O` was tested, and the IC50 (HCT-15) was 9.9 µM, the IC50 (MCF7) was 9.8 µM and the IC50 (HeLa) was 6.9 µM.

For `CCCC[C@H](OC(C)=O)[C@@H](OC(C)=O)[C@H](OC(C)=O)[C@@H]1OC(=O)C=C[C@@H]1OC(C)=O`, the IC50 (HCT-15) was > 10 µM, the IC50 (MCF7) was 7.7 µM and the IC50 (HeLa) was 2.7 µM.
